Reference: patent US11191293B2, “Nutritional composition and infant formula for promoting myelination of the brain” (NESTEC S.A., priority 2015, dated 2021)

Assays:
[1] = system: brain myelination (myelin water fraction); test: Cross-sectional correlation of infant formula nutrient content with brain myelination (mcDESPOT MRI myelin water fraction); type: in vivo, human; conditions: formula-fed children up to 5 years of age; brain regions named per nutrient
Experimental: MRI (Magnetic Resonance Imaging): MRI brain scans of infants and children between 0 and 5 years were acquired using a white matter imaging technique. This technique provides a quantitative measure, the Myelin Water Fraction (MWF), which is a surrogate marker of myelin content in the brain. When mapped as a function of time across early childhood, myelination trajectories can be generated.
Infant formula composition: six infant formulas fed to infants participating in a study were analyzed for their composition/level of myelin-relevant nutrients.
Infants included in this study were drawn from a larger longitudinal study of normal brain and behavioral development: the Brown University Assessment of Myelination and Behavior Across Maturation (BAMBAM). To focus on neurotypical development, children with known potential risk factors for learning, neurologic, or psychiatric disorders were specifically excluded during recruitment and enrollment. Thus, children with in utero alcohol or illicit substance exposure, premature (<37 weeks gestation) or multiple birth, fetal ultrasound abnormalities, complicated pregnancy (e.g., preeclampsia), APGAR scores <8, NICU admission, neurological disorder (e.g., head injury, epilepsy), psychiatric or developmental disorders in the infant, parents or siblings (including maternal depression requiring medication) were excluded. Ongoing screenings, such as the MCAT for autism, or CBCL for behavioral problems, were further used to remove enrolled children with clinically concerning behaviors or overt medical conditions (such as autism spectrum disorders).
A combination of retrospective and prospective data were acquired from parents via detailed medical histories and parental interview on the type of infant formula used, percentage of breastfeeding to formula feeding, and length of exclusive breastfeeding. This information was updated at each study visit, which occurred approximately every 6 months for children under 2 years, and yearly for older children. Using this information, children were categorized into one of 2 groups: #1. Exclusively formula-fed; and #2. Exclusively breastfed for at least 90 days (3 months). Children who were fed a combination of breastmilk and formula within 3 months were excluded from our analysis. Infants within the exclusively formula-fed group were further sub-divided based on parental reports of the main infant formula used throughout the first 3 months. Main formula was defined as that given 90% of the time or more (in the case were parents used an alternate brand during vacation, for example).
Using these criteria, 94 exclusively formula-fed infants and young children were selected into group #1. These included 13 children who received formula #2; 28 who received formula #5; 8 who received formula #3; 39 who received formula #4; 5 who received formula #1 and 1 who received formula #6. A sample of 52 exclusively breast-fed infants were also selected and matched to the over formula-fed group with regards to mean age, gestation duration, birth weight, male:female ratio, ethnicity ratio, maternal education, family size, and number of languages spoken in the home (in addition to English).
Each infant was scanned using the mcDESPOT (multicomponent Driven Equilibrium Single Pulse Observation of T1 and T2) white matter imaging technique Deoni et al. (Magn. Reson. Med. 2008, 60:1372-1387), which provides a quantitative measure of the myelin water fraction (MWF)—a measure of myelin content—at each point throughout the brain. All infants were scanned during natural (i.e. non-sedated) sleep using acoustically-muffled mcDESPOT imaging protocols. Total imaging times ranged from 19 minutes for the youngest toddlers to 24 minutes for the older 4 year-old children.

[2] = system: neural progenitor cell (NPCs); test: Differentiation assay: quantification of neuronal and glial marker expression in monolayer NPC culture; type: cell-based, mouse; design: key: marker integrated density normalized to DAPI integrated density; conditions: 9 d culture; for astrocyte cell density: GFAP normalized to DAPI
Experimental: Generation of neural progenitor cell (NPCs) libraries: dissociation of E14 mouse neocortex E14 pup brains were harvested and placed in ice cold DPBS(1X)+10% Pen/Strep, then they were dissected using a dissecting microscope. From each pup, one brain hemisphere was placed in 2 ml of Neurobasal media/10% P/S/10X Hepes and another brain hemisphere was placed in another tube. The tissue from each tube was aseptically and manually dissociate into single cells, neurobasal complete medium was added and centrifuged at […] for 5 min. The tissue was then re-suspended in neurobasal complete media with GF and placed in a corning suspension culture dish 100 mm×20 mm (#430591). […] 24 well glass bottom plates (Mat Tek […]-1.0-13-F Case, glass bottom 24 well plates) were coated with poly-L-ornithin (Sigma P4957) and Fibronection (Sigma F1141) before use in the assay below. Cells were plated (10,000 cells per well) in Complete media with GF for 24 hours (500 ul per well). […] After 24 hours, it was ensured that cells were attached to the plate, then the medium was carefully removed. […] Note: medium contains no GF. […] The cells were culture for 9 d in media plus 2% Nu Serum, the medium was changed every 2 nd day. For fixation and subsequent immunohistochemical analysis the medium was removed, the cells were rinsed once with 1X PBS for 5 min, and fixed with 4% PFA in 1X PBS for 15 min at 4° C. The cells were then washed twice with 1X PBS for 5 min, left in 1X PBS, wrapped in foil and left overnight at 4C, or they were immediately primary antibody staining was carried out. PBS was removed and enough AB staining solution (1% Goat serum, 1xPBS, and 0.1% triton X) was added to cover the bottom, the block was kept at room temp for 1 hour. Primary antibody dilutions were made in appropriate amount of AB staining solution, 250 ul per well (the antibodies were only kept out on ice for a short time, mouse anti-MAP2 or TUJ1 1:500 (neuron marker), rabbit anti-GFAP(glial marker) 1:1000, chicken anti-Nestin CFP (EGFP antibody (progenitor cell marker)) 1:1000. AB staining solution was removed and a solution of primary antibodies was added to each chamber. The cells were wrapped in foil and kept overnight 4'C. The cells were then washed with 400 ul of AB staining solution for 5 min once to remove primary antibodies. Secondary antibody solutions were made (enough for 250 ul of each chamber) (Goat anti-mouse alexa 488 1:2000, anti-rabbit Cy3 (1:500), anti-chicken alexa 647 1:500, and 1:5000 Dapi). The cells were incubated at room temp for 1 hour in the dark and washed 2 time in AB staining solution for five mins. They were then kept at 4° C. or Imaged using a GE Cytell imager or LSM 710, Zeiss confocal microscope and analyze with ImageJ software(National Institutes of Health). Each marker expression was measured on collected images (integrated density measure in ImageJ) and normalized to DAPI fluorescence, marking all nuclei (integrated density measure). Octanoic Acid were labeled with neuronal beta-tubulin III (TuJ1), subsequent compounds were labeled with Microtubule-associated protein 2 (MAP2).

For phosphatidylcholine, the “association of nutrient content of infant formula with myelination (myelin water fraction) over time in the brain” value [1] was “an association with myelination (myelin water fraction) was observed”.

iron was tested, and the “association of nutrient content of infant formula with myelination (myelin water fraction) over time in the brain” value [1] was “an association with myelination (myelin water fraction) was observed”.

For vitamin B12, the “association of nutrient content of infant formula with myelination (myelin water fraction) over time in the brain” value [1] was “an association with myelination (myelin water fraction) was observed”.

`[Ca+2]` [calcium] was tested, and the “association of nutrient content of infant formula with myelination (myelin water fraction) over time in the brain” value [1] was “an association with myelination (myelin water fraction) was observed”.

`CCCCCCCCCCCCCCCCCC(=O)O` [Stearic acid, Stearic Acid] was tested, and the astrocyte cell density ([2]; Stearic acid high dose (Dose 3, 10 μM)) was 0.85, the “Neuronal Cell density” value ([2]; Stearic acid high dose (Dose 3, 10 μM), MAP2 normalized to DAPI) was 0.64 and the astrocyte cell density ([2]; Stearic acid low dose (Dose 1, 100 nM)) was 0.68. The “Neuronal Cell density” value ([2]; Stearic acid low dose (Dose 1, 100 nM), MAP2 normalized to DAPI) was 0.54, the astrocyte cell density ([2]; Stearic acid med dose (Dose 2, 1 μm)) was 0.81 and the “Neuronal Cell density” value ([2]; Stearic acid med dose (Dose 2, 1 μm), MAP2 normalized to DAPI) was 0.66.

In the case of `[Mg+2]` [magnesium], the “association of nutrient content of infant formula with myelination (myelin water fraction) over time in the brain” value [1] is reported as “an association with myelination (myelin water fraction) was observed”.

With phosphatidylinositol the “association of nutrient content of infant formula with myelination (myelin water fraction) over time in the brain” value [1] was “an association with myelination (myelin water fraction) was observed”.

With `CCCCCCCC/C=C\CCCCCCCCCCCCCC(=O)O` [Nervonic acid, Nervonic Acid] the astrocyte cell density ([2]; Nervonic acid high dose (Dose 3, 1 μm)) was 0.7028, the “Neuronal Cell density” value ([2]; Nervonic acid high dose (Dose 3, 1 μm), MAP2 normalized to DAPI) was 0.5394 and the astrocyte cell density ([2]; Nervonic acid low dose (Dose 1, 10 nM)) was 0.6218. For the same compound, the “Neuronal Cell density” value ([2]; Nervonic acid low dose (Dose 1, 10 nM), MAP2 normalized to DAPI) was 0.4676, the astrocyte cell density ([2]; Nervonic acid med dose (Dose 2, 100 nM)) was 0.7215 and the “Neuronal Cell density” value ([2]; Nervonic acid med dose (Dose 2, 100 nM), MAP2 normalized to DAPI) was 0.5656.

For `[P]` [phosphorus], the “association of nutrient content of infant formula with myelination (myelin water fraction) over time in the brain” value [1] was “an association with myelination (myelin water fraction) was observed”.

In the case of `CCCCCCCC(=O)O` [Octanoic acid, Octanoic Acid], the astrocyte cell density ([2]; Octanoic acid high dose (Dose 3, 250 μM)) is reported as 7.9, the “Neuronal Cell density” value ([2]; Octanoic acid high dose (Dose 3, 250 μM), TuJ1 normalized to DAPI) is reported as 1.7 and the astrocyte cell density ([2]; Octanoic acid low dose (Dose 1, 10 μM)) is reported as 3.7. For the same compound, the “Neuronal Cell density” value ([2]; Octanoic acid low dose (Dose 1, 10 μM), TuJ1 normalized to DAPI) was 1.2, the astrocyte cell density ([2]; Octanoic acid med dose (Dose 2, 50 μM)) was 6.1 and the “Neuronal Cell density” value ([2]; Octanoic acid med dose (Dose 2, 50 μM), TuJ1 normalized to DAPI) was 1.8.

In the case of `[Zn]` [zinc], the “association of nutrient content of infant formula with myelination (myelin water fraction) over time in the brain” value [1] is reported as “an association with myelination (myelin water fraction) was observed”.

In the case of `CCCCC/C=C\C/C=C\C/C=C\C/C=C\CCCC(=O)O` [AA, arachidonic acid], the “association of nutrient content of infant formula with myelination (myelin water fraction) over time in the brain” value [1] is reported as “an association with myelination (myelin water fraction) was observed”.
